Test results from patent US20260130959A1, “FUNGAL EXTRACTS AND FLAVOR COMBINATIONS THEREOF” (MYCOTECHNOLOGY, INC., priority 2019, published 2026).

Test system: Sprague-Dawley rats
Assay: Rat lick study (Davis Rig) on saccharin, citric acid and quinine
Format: in vivo
Conditions: water 192 licks
Description: Bitter blocker prepared as described above in Example 2, at 5, 25, 50 and 100 mg/L alone (called CLEARTASTE® herein) and added to each solution below:
Sucrose 250 mM; Saccharin 10 mM; MSG 150 mM; NaCl 400 and 800 mM; Citric Acid 10 mM; Quinine 0.08 and 0.16 mM.
16 naïve, adult (>50 days old, approximately 200 gram body weight), male Sprague-Dawley rats were tested in the MS-160 “Davis Rig,” manufactured by DiLog Instruments, Inc. We measured licking behavior at a resolution of 1 ms during the controlled presentation of up to 16 taste stimuli. The Davis Rig is housed inside an acoustic isolation chamber utilizing a white noise generator. Intake and exhaust fans located on opposing walls of the chamber direct constant air flow along the longitudinal axis of the stimulus delivery tray in order to reduce olfactory cues for any given stimulus. Therefore all licking behavior during brief (30 s duration) trials was motivated by orosensory/taste sensations. Rats were trained to lick during trials presenting water as the stimulus in the Davis Rig for three consecutive days prior to the start of testing. Each daily test session contained two blocks of 15 trials producing two replications of each test stimulus within each daily session. We tested the rats for a total of eight days.

## C=C[C@H]1C[N@@]2CC[C@H]1C[C@H]2[C@H](O)c1ccnc2ccc(OC)cc12 [quinine]
0.08 mM quinine alone
  licks: 170 licks
0.16 mM quinine alone
  licks: 70 licks
